Where two headings read alike, the source gives them in different places.
Test system: Dengue-2 (Strain New Guinea C)
Experiment: Viral yield assay against Dengue-2 in Vero cells
Format: cell-based, Dengue virus
Conditions: Dengue virus
Description: Compounds that were active in the primary screen were tested for activity in viral yield assays. […] Vero cells in 12-well plates were infected with dengue-2 virus at a multiplicity of infection (MOI) of 0.1, treated with compound (or DMSO as a control), incubated at 37° C., harvested 48 hours post infection and titered on Vero cells as described above. The EC50 was calculated through ExcelFit. Activities against other serotypes of dengue virus were determined in a similar way.

[1] = Vero cells, MOI 0.1, harvested 48 hours post infection, read-out: Activity (EC50 class) against Dengue-2 Virus in Vero cells
[2] = DENV2, viral yield assay, Vero cells, MOI 0.1, 48 hours post infection, read-out: Activity (EC50 in μM) DENV-2
[3] = Vero, 48 h, read-out: Activity (EC50 class) against Dengue-2 Virus in Vero cells

Row | SMILES | EC50 [1] [µM] | EC50 [2] [µM] | other results
1 | CCc1nc2sc(C(=O)Nc3cccc(C(F)(F)F)c3)c(N)c2cc1C [Compound 93, 3-Amino-6-ethyl-5-methyl-thieno[2,3-b]pyridine-2-carboxylic acid (3-trifluoromethyl-phenyl)-amide] | 5 to 25 |  | 
2 | Cc1cc(F)ccc1NC(=O)c1sc2nc(-c3ccc4c(c3)OCO4)ccc2c1N [Compound 593, 3-amino-6-(1,3-benzodioxol-5-yl)-N-(4-fluoro-2-methyl-phenyl)thieno[2,3-b] pyridine-2-carboxamide] |  | < 5 | 
3 | CCOC(=O)c1cc2c(N)c(C(=O)Nc3cccc(C(F)(F)F)c3)sc2nc1N [Compound 75, 3,6-Diamino-2-(3-trifluoromethyl-phenylcarbamoyl)-thieno[2,3-b]pyridine-5-carboxylic acid ethyl ester] | 5 to 25 |  | 
4 | CCc1nnc(NC(=O)c2sc3nc(-c4ccccc4)cc(C(F)(F)F)c3c2N)s1 [Compound 194, 3-Amino-6-phenyl-4-trifluoromethyl-thieno[2,3-b]pyridine-2-carboxylic acid (5-ethyl-[1,3,4]thiadiazol-2-yl)-amide] | > 25 |  | 
5 | COc1ccc(-c2ccc3c(N)c(C(=O)Nc4ccc(Br)cc4C)sc3n2)cc1OC [Compound 578, 3-amino-N-(4-bromo-2-methyl-phenyl)-6-(3,4-dimethoxyphenyl)thieno[2,3-b] pyridine-2-carboxamide] |  | < 5 | 
6 | Nc1c(C(=O)Nc2ccc3c(c2)OCO3)sc2nc(-c3ccc(F)cc3F)ccc12 [Compound 655, 3-amino-N-(1,3-benzodioxol-5-yl)-6-(2,4-difluorophenyl)thieno[2,3-b]pyridine-2-carboxamide] |  | < 5 | 
7 | CC1(C)CC(=O)c2cc3c(N)c(C(=O)NCc4ccco4)sc3nc2C1 [Compound 95, 3-Amino-7,7-dimethyl-5-oxo-5,6,7,8-tetrahydro-thieno[2,3-b]quinoline-2-carboxylic acid (furan-2-ylmethyl)-amide] |  |  | EC50 [3]: 5 to 25 µM
8 | Cc1nc2c(sc3nc4c(cc32)COC(C)(C)C4)c(=O)n1CCc1ccccc1 [Compound 230, 3,8,8-Trimethyl-2-phenethyl-8,9-dihydro-2H,6H-7-oxa-11-thia-2,4,10-triaza-benzo[b]fluoren-1-one] |  |  | EC50 [3]: > 25 µM
9 | Cc1c(C(=O)NC(C)(C)C)sc2nc(-c3cccs3)cc(C(F)(F)F)c12 [Compound 388, N-tert-butyl-3-methyl-6-(2-thienyl)-4-(trifluoromethyl)thieno[2,3-b]pyridine-2-carboxamide] |  | < 5 | 
10 | Nc1c(C(=O)Nc2ccc(Br)cc2)sc2nc(-c3ccc(Cl)cc3Cl)ccc12 [Compound 654, 3-amino-N-(4-bromophenyl)-6-(2,4-dichlorophenyl)thieno[2,3-b]pyridine-2-carboxamide] |  | < 5 | 
11 | COCc1cc(C)nc2sc(C(=O)N(c3ccccc3)c3ccccc3)c(N)c12 [Compound 140, 3-Amino-4-methoxymethyl-6-methyl-thieno[2,3-b]pyridine-2-carboxylic acid diphenylamide] |  |  | EC50 [3]: > 25 µM
12 | O=c1[nH]cnc2c1sc1nc(N3CCOCC3)c3c(c12)CCCC3 [Compound 182, 5-Morpholin-4-yl-1,2,3,4-tetrahydro-9H-7-thia-6,9,11-triaza-benzo[c]fluoren-8-one] |  |  | EC50 [3]: > 25 µM
13 | COc1ccc(-c2ccc3c(N)c(C(=O)Nc4ccc5c(c4)OCO5)sc3n2)cc1OC [Compound 580, 3-amino-N-(1,3-benzodioxol-5-yl)-6-(3,4-dimethoxyphenyl)thieno[2,3-b] pyridine-2-carboxamide] |  |  | EC50 (DENV2, Vero, 48 h, read-out: Activity (EC50 in μM) DENV-2): < 5 µM
14 | COc1cccc(-c2ccc3c(N)c(C(=O)Nc4cccc(SC)c4)sc3n2)c1 [Compound 505, 3-amino-6-(3-methoxyphenyl)-N-(3-methylsulfanylphenyl)thieno[2,3-b] pyridine-2-carboxamide] |  | < 5 | 
15 | Nc1c(C(=O)Nc2cccc(C(F)(F)F)c2)sc2nc(-c3ccncc3)ccc12 [Compound 440, 3-amino-6-(4-pyridyl)-N-[3-(trifluoromethyl)phenyl]thieno[2,3-b] pyridine-2-carboxamide] |  | 5 to 25 | 
16 | CCNC(=O)c1cccc(NC(=O)c2sc3nc(C)cc(C)c3c2C)c1 [Compound 402, N-[3-(ethylcarbamoyl)phenyl]-3,4,6-trimethyl-thieno[2,3-b]pyridine-2-carboxamide] |  | > 25 | 
17 | N#Cc1c(N)nc2sc(C(=O)Nc3ccccc3)c(N)c2c1-c1ccco1 [Compound 375, 3,6-diamino-5-cyano-4-(2-furyl)-N-phenyl-thieno[2,3-b]pyridine-2-carboxamide] |  | 5 to 25 | 
18 | CC1(C)Cc2nc3sc4c(=O)n(Cc5ccccc5)cnc4c3cc2CO1 [Compound 174, 2-Benzyl-8,8-dimethyl-8,9-dihydro-2H,6H-7-oxa-11-thia-2,4,10-triaza-benzo[b]fluoren-1-one] | > 25 |  | 

Row | SMILES | EC50 [1] [µM] | EC50 [2] [µM] | other results
19 | CC1(C)Cc2nc3sc(C(=O)NCCCO)c(N)c3cc2CS1 [Compound 253, 3-Amino-7,7-dimethyl-7,8-dihydro-5H-1,6-dithia-9-aza-cyclopenta[b]naphthalene-2-carboxylic acid (3-hydroxy-propyl)-amide] |  |  | EC50 [3]: > 25 µM
20 | CCCCNC(=O)c1sc2nc3c(cc2c1NC(C)=O)COC(C)(C)C3 [Compound 237, 3-Acetylamino-7,7-dimethyl-7,8-dihydro-5H-pyrano[4,3-b]thieno[3,2-e]pyridine-2-carboxylic acid butylamide] | > 25 |  | 
21 | Cc1csc(NC(=O)c2sc3nc(C)c4c(c3c2N)CCCC4)n1 [Compound 4, 1-Amino-5-methyl-6,7,8,9-tetrahydro-thieno[2,3-c]isoquinoline-2-carboxylic acid (4-methyl-thiazol-2-yl)-amide] |  |  | EC50 [3]: < 5 µM
22 | Nc1c(C(=O)Nc2ccccc2)sc2nc(-c3ccccc3)cc(-c3ccccc3)c12 [Compound 66, 3-Amino-4,6-diphenyl-thieno[2,3-b]pyridine-2-carboxylic acid phenylamide] | 5 to 25 |  | 
23 | Nc1c(C(=O)Nc2ccccc2Br)sc2ncccc12 [Compound 422, 3-amino-N-(2-bromophenyl)thieno[2,3-b] pyridine-2-carboxamide] |  | < 5 | 
24 | CCN1CCc2nc3sc(C(=O)Nc4cccnc4Cl)c(N)c3cc2C1 [Compound 41, 3-Amino-6-ethyl-5,6,7,8-tetrahydro-thieno[2,3-b][1,6]naphthyridine-2-carboxylic acid (2-chloro-pyridin-3-yl)-amide] |  |  | EC50 [3]: < 5 µM
25 | NC(=O)c1sc2nc3c(c(-c4ccco4)c2c1N)CCC3 [Compound 99, 3-Amino-4-furan-2-yl-6,7-dihydro-5H-cyclopenta[b]thieno[3,2-e]pyridine-2-carboxylic acid amide] |  |  | EC50 [3]: 5 to 25 µM
26 | CCOc1cccc(NC(=O)c2sc3nc(-c4cccc(OC)c4)ccc3c2N)c1 [Compound 552, 3-amino-N-(3-ethoxyphenyl)-6-(3-methoxyphenyl)thieno[2,3-b]pyridine-2-carboxamide] |  | < 5 | 
27 | C=CCc1c(C)nc2sc(C(=O)Nc3ccc(Br)cc3)c(N)c2c1C [Compound 216, 5-Allyl-3-amino-4,6-dimethyl-thieno[2,3-b]pyridine-2-carboxylic acid (4-bromo-phenyl)-amide] | > 25 |  | 
28 | Nc1c(C(=O)Nc2ccc([N+](=O)[O-])cc2)sc2nc3c(cc12)CCC3 [Compound 215, 3-Amino-6,7-dihydro-5H-cyclopenta[b]thieno[3,2-e]pyridine-2-carboxylic acid (4-nitro-phenyl)-amide] | > 25 |  | 
29 | CC(C)N1CCc2nc3sc(C(=O)Nc4cccc(F)c4)c(N)c3cc2C1 [Compound 24, 3-Amino-6-isopropyl-5,6,7,8-tetrahydro-thieno[2,3-b][1,6]naphthyridine-2-carboxylic acid (3-fluoro-phenyl)-amide] | < 5 |  | 
30 | COc1ccc(Cl)c(NC(=O)c2sc3nc(-c4ccc5c(c4)OCO5)ccc3c2N)c1 [Compound 589, 3-amino-6-(1,3-benzodioxol-5-yl)-N-(2-chloro-5-methoxy-phenyl)thieno[2,3-b] pyridine-2-carboxamide] |  | < 5 | 
31 | COc1ccc(NC(=O)c2sc3nc4c(c(-c5cccs5)c3c2N)CN(C)CC4)cc1 [Compound 28, 3-Amino-6-methyl-4-thiophen-2-yl-5,6,7,8-tetrahydro-thieno[2,3-b][1,6]naphthyridine-2-carboxylic acid (4-methoxy-phenyl)-amide] | < 5 |  | 
32 | Nc1c(C(=O)Nc2cccc(C(F)(F)F)c2)sc2ncccc12 [Compound 420, 3-amino-N-[3-(trifluoromethyl)phenyl] thieno[2,3-b]pyridine-2-carboxamide] |  | < 5 | 
33 | COc1ccc(NC(=O)c2sc3nc4c(cc3c2N)CN(C(C)C)CC4)cc1 [Compound 23, 3-Amino-6-isopropyl-5,6,7,8-tetrahydro-thieno[2,3-b][1,6]naphthyridine-2-carboxylic acid (4-methoxy-phenyl)-amide] | < 5 |  | 
34 | CCN1CCc2nc3sc(C(=O)Nc4ccc(C(F)(F)F)cc4)c(N)c3cc2C1 [Compound 21, 3-Amino-6-ethyl-5,6,7,8-tetrahydro-thieno[2,3-b][1,6]naphthyridine-2-carboxylic acid (4-trifluoromethyl-phenyl)-amide] | < 5 |  | 
35 | Nc1c(C(=O)Nc2ccccc2C(F)(F)F)sc2ncccc12 [Compound 424, 3-amino-N-[2-(trifluoromethyl)phenyl] thieno[2,3-b]pyridine-2-carboxamide] |  | 5 to 25 | 
36 | COc1ccccc1NC(=O)c1sc2nc(N3CCOCC3)c3c(c2c1N)CC(C)(C)OC3 [Compound 247, 1-Amino-8,8-dimethyl-5-morpholin-4-yl-8,9-dihydro-6H-7-oxa-3-thia-4-aza-cyclopenta[a]naphthalene-2-carboxylic acid (2-methoxy-phenyl)-amide] | > 25 |  | 

— US20170121344A1 (Siga Technologies, Inc., priority 2009, published 2017)
